ChEMBL document CHEMBL1201862, “PubChem BioAssay data set” (2004)
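Growth conditions: 96-well plates. Treatment: test compound, 48 hours, 5 concentrations. Analysis: linear interpolation between bracketing concentrations; unreached endpoints set to highest concentration. GI50 marks 50% less growth.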 Activity calls are given as the source filed them. Rule as the data show it: active = GI50 up to about 1.1 µM and inactive = higher.

Legend:
Assay in all cases: NCI-60 cell line screen, 48 h
786-0 = system: 786-0
A549 = system: A549
ACHN = system: ACHN
CAKI-1 = system: CAKI-1
CCRF-CEM = system: CCRF-CEM
COLO 205 = system: COLO 205
DLD-1 = system: DLD-1
DMS-114 = system: DMS-114
DMS-273 = system: DMS-273
EKVX = system: EKVX
HCC 2998 = system: HCC 2998
HCT-116 = system: HCT-116
HCT-15 = system: HCT-15
HL-60 = system: HL-60
HOP-18 = system: HOP-18
HOP-62 = system: HOP-62
HT-29 = system: HT-29
IGROV-1 = system: IGROV-1
K562 = system: K562
KM-20L2 = system: KM-20L2
KM12 = system: KM12
LOX IMVI = system: LOX IMVI
LXFL 529 = system: LXFL 529
M14 = system: M14
M19-MEL = system: M19-MEL
MOLT-4 = system: MOLT-4
Malme-3M = system: Malme-3M
NCI-H226 = system: NCI-H226
NCI-H23 = system: NCI-H23
NCI-H460 = system: NCI-H460
NCI-H522 = system: NCI-H522
OVCAR-4 = system: OVCAR-4
OVCAR-5 = system: OVCAR-5
OVCAR-8 = system: OVCAR-8
RPMI-8226 = system: RPMI-8226
RXF 393 = system: RXF 393
SF-268 = system: SF-268
SF-295 = system: SF-295
SF-539 = system: SF-539
SK-MEL-28 = system: SK-MEL-28
SK-MEL-2 = system: SK-MEL-2
SK-OV-3 = system: SK-OV-3
SN12C = system: SN12C
SNB-19 = system: SNB-19
SNB-75 = system: SNB-75
SNB-78 = system: SNB-78
SW-620 = system: SW-620
TK-10 = system: TK-10
U-251 = system: U-251
UACC-257 = system: UACC-257
UACC-62 = system: UACC-62
UO-31 = system: UO-31
XF498 = system: XF498
A498 = system: A498
HOP-92 = system: HOP-92
OVCAR-3 = system: OVCAR-3
SK-MEL-5 = system: SK-MEL-5
SR = system: SR

`CN1C(=O)CCC1c1ccc2c(c1)oc(=O)n2C` (stereo not given) was tested, and the GI50 (786-0) was > 100 µM (inactive), the GI50 (A549) was > 100 µM (inactive) and the GI50 (ACHN) was > 100 µM (inactive). For the same molecule, the GI50 (CAKI-1) was > 100 µM (inactive), the GI50 (CCRF-CEM) was > 100 µM (inactive) and the GI50 (COLO 205) was > 100 µM (inactive). For the same molecule, the GI50 (DLD-1) was > 100 µM (inactive), the GI50 (DMS-114) was > 100 µM (inactive) and the GI50 (DMS-273) was > 100 µM (inactive). For the same molecule, the GI50 (EKVX) was > 100 µM (inactive), the GI50 (HCC 2998) was > 100 µM (inactive) and the GI50 (HCT-116) was > 100 µM (inactive). The GI50 (HCT-15) was > 100 µM, the GI50 (HL-60) was > 100 µM (inactive) and the GI50 (HOP-18) was > 100 µM (inactive). For the same molecule, the GI50 (HOP-62) was > 100 µM (inactive), the GI50 (HT-29) was > 100 µM (inactive) and the GI50 (IGROV-1) was > 100 µM (inactive). The GI50 (K562) was > 100 µM (inactive), the GI50 (KM-20L2) was > 100 µM (inactive) and the GI50 (KM12) was > 100 µM (inactive). For the same molecule, the GI50 (LOX IMVI) was > 100 µM (inactive), the GI50 (LXFL 529) was > 100 µM (inactive) and the GI50 (M14) was > 100 µM (inactive). For the same molecule, the GI50 (M19-MEL) was > 100 µM (inactive), the GI50 (MOLT-4) was > 100 µM (inactive) and the GI50 (Malme-3M) was > 100 µM (inactive). The GI50 (NCI-H226) was > 100 µM (inactive), the GI50 (NCI-H23) was > 100 µM (inactive) and the GI50 (NCI-H460) was > 100 µM (inactive). For the same molecule, the GI50 (NCI-H522) was > 100 µM (inactive), the GI50 (OVCAR-4) was > 100 µM (inactive) and the GI50 (OVCAR-5) was > 100 µM (inactive). For the same molecule, the GI50 (OVCAR-8) was > 100 µM (inactive), the GI50 (RPMI-8226) was > 100 µM (inactive) and the GI50 (RXF 393) was > 100 µM (inactive). For the same molecule, the GI50 (SF-268) was > 100 µM (inactive), the GI50 (SF-295) was > 100 µM (inactive) and the GI50 (SF-539) was > 100 µM (inactive). For the same molecule, the GI50 (SK-MEL-28) was > 100 µM (inactive), the GI50 (SK-MEL-2) was > 100 µM (inactive) and the GI50 (SK-OV-3) was > 100 µM (inactive). The GI50 (SN12C) was > 100 µM (inactive), the GI50 (SNB-19) was > 100 µM (inactive) and the GI50 (SNB-75) was > 100 µM (inactive). The GI50 (SNB-78) was > 100 µM (inactive), the GI50 (SW-620) was > 100 µM (inactive) and the GI50 (TK-10) was > 100 µM (inactive). The GI50 (U-251) was > 100 µM (inactive), the GI50 (UACC-257) was > 100 µM (inactive) and the GI50 (UACC-62) was > 100 µM (inactive). The GI50 (UO-31) was > 100 µM (inactive) and the GI50 (XF498) was > 100 µM (inactive).

With `C#CC(C)(C)OCCCCOc1cc(O)c2c(=O)c3ccccc3n(C)c2c1` the GI50 (786-0) was > 100 µM (inactive), the GI50 (A498) was 91 µM (inactive) and the GI50 (A549) was > 100 µM (inactive). For the same molecule, the GI50 (ACHN) was > 100 µM (inactive), the GI50 (CAKI-1) was > 100 µM (inactive) and the GI50 (CCRF-CEM) was > 100 µM (inactive). The GI50 (COLO 205) was 23.7 µM (inactive), the GI50 (DLD-1) was > 100 µM (inactive) and the GI50 (DMS-114) was 29.3 µM (inactive). The GI50 (DMS-273) was 77.8 µM (inactive), the GI50 (EKVX) was > 100 µM (inactive) and the GI50 (HCC 2998) was 66.1 µM (inactive). The GI50 (HCT-116) was > 100 µM (inactive), the GI50 (HCT-15) was > 100 µM and the GI50 (HL-60) was > 100 µM (inactive). For the same molecule, the GI50 (HOP-18) was > 100 µM (inactive), the GI50 (HOP-62) was > 100 µM (inactive) and the GI50 (HOP-92) was > 100 µM (inactive). The GI50 (HT-29) was 21.7 µM (inactive), the GI50 (IGROV-1) was > 100 µM (inactive) and the GI50 (K562) was > 100 µM (inactive). For the same molecule, the GI50 (KM-20L2) was 31.3 µM (inactive), the GI50 (KM12) was 97.9 µM (inactive) and the GI50 (LOX IMVI) was > 100 µM (inactive). The GI50 (LXFL 529) was > 100 µM (inactive), the GI50 (M14) was 87.9 µM (inactive) and the GI50 (M19-MEL) was > 100 µM (inactive). The GI50 (Malme-3M) was > 100 µM (inactive), the GI50 (NCI-H226) was > 100 µM (inactive) and the GI50 (NCI-H23) was > 100 µM (inactive). For the same molecule, the GI50 (NCI-H460) was 57.5 µM (inactive), the GI50 (NCI-H522) was > 100 µM (inactive) and the GI50 (OVCAR-3) was > 100 µM (inactive). For the same molecule, the GI50 (OVCAR-4) was > 100 µM (inactive), the GI50 (OVCAR-5) was > 100 µM (inactive) and the GI50 (OVCAR-8) was > 100 µM (inactive). The GI50 (RPMI-8226) was > 100 µM (inactive), the GI50 (RXF 393) was > 100 µM (inactive) and the GI50 (SF-268) was > 100 µM (inactive). For the same molecule, the GI50 (SF-295) was > 100 µM (inactive), the GI50 (SF-539) was > 100 µM (inactive) and the GI50 (SK-MEL-28) was > 100 µM (inactive). The GI50 (SK-MEL-2) was > 100 µM (inactive), the GI50 (SK-MEL-5) was 66.5 µM (inactive) and the GI50 (SK-OV-3) was > 100 µM (inactive). For the same molecule, the GI50 (SN12C) was > 100 µM (inactive), the GI50 (SNB-19) was > 100 µM (inactive) and the GI50 (SNB-75) was 84.5 µM (inactive). The GI50 (SNB-78) was > 100 µM (inactive), the GI50 (SR) was 89.3 µM (inactive) and the GI50 (SW-620) was > 100 µM (inactive). The GI50 (TK-10) was > 100 µM (inactive), the GI50 (U-251) was > 100 µM (inactive) and the GI50 (UACC-257) was > 100 µM (inactive). The GI50 (UACC-62) was > 100 µM (inactive), the GI50 (UO-31) was > 100 µM (inactive) and the GI50 (XF498) was > 100 µM (inactive).
